Experiments:
[1] = system: DU-145 (prostate cancer) cells; experiment: Confocal / fluorescence lifetime microscopy of doxorubicin uptake from rHDL-Doxorubicin nanoparticles; format: cell-based
Description: The data presented in FIGS. 11-12 were obtained via fluorescence lifetime microscopy via the following protocols. Apo A-I was labeled with Alexa Fluor 647 (Fluorescent dye Excitation: 650 nm; Emission:665 nm), using Alexa Fluor™ 647 Antibody Labeling Kit (by Thermo Fisher) according to the manufacturer's protocol. The rHDL-Doxorubicin nanoparticles were prepared with the Alexa Fluor 647 labeled Apo A-I, using the cholate dialysis protocol. The DU-145 (prostate cancer) cells were treated with the rHDL-Doxorubicin nanoparticles at 37° C./5% CO2 and observed under confocal microscopy for uptake of doxorubicin. In order to inhibit the uptake, […] antibody was used to block the receptor activity.
For imaging, the cells were plated on custom glass bottom petri dishes. Before imaging, the cells were washed with PBS, and doped with several concentrations of free or rHDL-doxorubicin formulations. For SR-B1 receptor blocking, the DU-145 cells were incubated with antibodies for SR-B1 receptor for 30 minutes at 5% CO2 and 37° C. The cells were excited with a 470 nm diode at 70% power, and the emission imaged at 600 nm. […] For dual label experiments, the samples were excited at 470 nm and 630 nm, with a 520 nm long pass filter on channel 1 to observe DOX fluorescence, and a 647 nm long pass on filter on channel 2 to observe […] emission. […]

cancer cells = conditions: encapsulated by HDL delivery particles; HDL receptor mediated mechanism (Lacko et al., 2002); cited from earlier work

Compound: COc1cccc2c1C(=O)c1c(O)c3c(c(O)c1C2=O)C[C@@](O)(C(=O)CO)C[C@@H]3O[C@H]1C[C@H](N)[C@H](O)[C@H](C)O1 [doxorubicin]
- cellular localization of doxorubicin ([1]; DU-145 cells treated with rHDL-Doxorubicin nanoparticles, FIG. 11A, FIG. 12): released into the cell cytoplasm

Compound: CC(=O)O[C@H]1C(=O)[C@@]2(C)[C@H]([C@H](OC(=O)c3ccccc3)[C@]3(O)C[C@H](OC(=O)[C@H](O)[C@@H](NC(=O)c4ccccc4)c4ccccc4)C(C)=C1C3(C)C)[C@]1(OC(C)=O)CO[C@@H]1C[C@@H]2O [paclitaxel]
- uptake by cancer cells (cancer cells): taken up by cancer cells

Compound: Alexa 647-conjugated Apo A-I: Apo A-I labeled with Alexa Fluor 647 fluorescent dye
- cellular localization of labeled Apo A-I ([1]; DU-145 cells treated with rHDL-Doxorubicin nanoparticles prepared with labeled Apo A-I, FIG. 11B): only localized in the membrane of the cell and does not enter the cell

Reference: US20200138727A1, “ENHANCED THERAPEUTIC AGENT AND NUCLEIC ACID DELIVERY VIA HDL OR RECONSTITUTED HDL NANOPARTICLES” (UNIVERSITY OF NORTH TEXAS HEALTH SCIENCE CENTER, priority 2017, published 2020)
